Data on 13 compounds can be found in ChEMBL document CHEMBL1132600 (J Med Chem, 1999).

By Ki is commonly meant the dissociation constant of the complex between target and ligand, obtained from inhibition or displacement.

This assay deals with Cannabinoid receptor 1 (Rattus norvegicus, UniProt P20272). Nature of the assay: Tested for binding affinity to Cannabinoid receptor 1.
Chain of Cannabinoid receptor 1 (P20272 whole entry): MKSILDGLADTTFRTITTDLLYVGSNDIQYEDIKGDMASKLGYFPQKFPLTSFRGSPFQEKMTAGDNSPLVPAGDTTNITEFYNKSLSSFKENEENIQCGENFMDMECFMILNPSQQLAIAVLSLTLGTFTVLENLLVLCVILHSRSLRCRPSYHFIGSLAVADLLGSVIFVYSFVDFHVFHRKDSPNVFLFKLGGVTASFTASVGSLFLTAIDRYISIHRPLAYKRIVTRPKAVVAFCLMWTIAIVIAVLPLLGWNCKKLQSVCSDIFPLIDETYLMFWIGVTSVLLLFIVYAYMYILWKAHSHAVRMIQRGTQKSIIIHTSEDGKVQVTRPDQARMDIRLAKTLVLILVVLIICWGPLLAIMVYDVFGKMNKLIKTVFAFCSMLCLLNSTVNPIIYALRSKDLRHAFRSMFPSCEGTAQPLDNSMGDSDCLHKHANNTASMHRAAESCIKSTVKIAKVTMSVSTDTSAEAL

The compound `CCCCC/C=C\C/C=C\C/C=C\C/C=C\CCCC(=O)NC(C)(C)CO` had a Ki of 151 nM.
As to `CCCCC/C=C\C/C=C\C/C=C\C/C=C\CCCC(=O)NC[C@@H](C)O`, the Ki turned out to be 119 nM.
Turning to `CCCCC/C=C\C/C=C\C/C=C\C/C=C\CCCC(N)=O` [ARACHIDONAMIDE], the Ki amounted to 9600 nM.
With `CCCCC/C=C\C/C=C\C/C=C\C/C=C\CCCC(=O)NC[C@H](C)O` the figure was 26 nM; with `CCCCC/C=C\C/C=C\C/C=C\C/C=C\CCC(C)(C)C(=O)NCCO`, 72.2 nM.
Compound `CCCCCCCC/C=C\CCCCCCCC(=O)N[C@@H](C)CO` gave a Ki of more than 10000 nM.
For `CCCCC/C=C\C/C=C\C/C=C\C/C=C\CCCC(=O)N(C)CCO`, the affinity, expressed as Ki, was 4980 nM.
With `CCCCC/C=C\C/C=C\C/C=C\C/C=C\CCCC(=O)NCCF` the figure was 8.6 nM; with `CCCCC/C=C\C/C=C\C/C=C\C/C=C\CCCC(=O)NC1CCC(O)CC1` (stereo not drawn), 217 nM.
With `CCCCCCCCCCCCCCCCCC(=O)NCCO` [N-(2-HYDROXYETHYL)STEARAMIDE] the figure was 217 nM.
With `CCCCC/C=C\C/C=C\C/C=C\C/C=C\CCCC(=O)Nc1ccc(CO)cc1` the figure was more than 3000 nM.
`CCCCC/C=C\C/C=C\CCCCCCCC(=O)N[C@@H](C)CO` yielded a Ki of more than 10000 nM.
With `CCCCCCCC/C=C\CCCCCCCC(=O)NCCO` [OLEOYLETHANOLAMIDE] the figure was more than 10000 nM.
